In one assay the target is EGFR (human) (UniProt P00533).
The next assay addresses CDK2 (human) (UniProt P24941). The experiment in a line: Enzyme Assay.

Sequence of EGFR (human) (P00533 whole entry, looked up): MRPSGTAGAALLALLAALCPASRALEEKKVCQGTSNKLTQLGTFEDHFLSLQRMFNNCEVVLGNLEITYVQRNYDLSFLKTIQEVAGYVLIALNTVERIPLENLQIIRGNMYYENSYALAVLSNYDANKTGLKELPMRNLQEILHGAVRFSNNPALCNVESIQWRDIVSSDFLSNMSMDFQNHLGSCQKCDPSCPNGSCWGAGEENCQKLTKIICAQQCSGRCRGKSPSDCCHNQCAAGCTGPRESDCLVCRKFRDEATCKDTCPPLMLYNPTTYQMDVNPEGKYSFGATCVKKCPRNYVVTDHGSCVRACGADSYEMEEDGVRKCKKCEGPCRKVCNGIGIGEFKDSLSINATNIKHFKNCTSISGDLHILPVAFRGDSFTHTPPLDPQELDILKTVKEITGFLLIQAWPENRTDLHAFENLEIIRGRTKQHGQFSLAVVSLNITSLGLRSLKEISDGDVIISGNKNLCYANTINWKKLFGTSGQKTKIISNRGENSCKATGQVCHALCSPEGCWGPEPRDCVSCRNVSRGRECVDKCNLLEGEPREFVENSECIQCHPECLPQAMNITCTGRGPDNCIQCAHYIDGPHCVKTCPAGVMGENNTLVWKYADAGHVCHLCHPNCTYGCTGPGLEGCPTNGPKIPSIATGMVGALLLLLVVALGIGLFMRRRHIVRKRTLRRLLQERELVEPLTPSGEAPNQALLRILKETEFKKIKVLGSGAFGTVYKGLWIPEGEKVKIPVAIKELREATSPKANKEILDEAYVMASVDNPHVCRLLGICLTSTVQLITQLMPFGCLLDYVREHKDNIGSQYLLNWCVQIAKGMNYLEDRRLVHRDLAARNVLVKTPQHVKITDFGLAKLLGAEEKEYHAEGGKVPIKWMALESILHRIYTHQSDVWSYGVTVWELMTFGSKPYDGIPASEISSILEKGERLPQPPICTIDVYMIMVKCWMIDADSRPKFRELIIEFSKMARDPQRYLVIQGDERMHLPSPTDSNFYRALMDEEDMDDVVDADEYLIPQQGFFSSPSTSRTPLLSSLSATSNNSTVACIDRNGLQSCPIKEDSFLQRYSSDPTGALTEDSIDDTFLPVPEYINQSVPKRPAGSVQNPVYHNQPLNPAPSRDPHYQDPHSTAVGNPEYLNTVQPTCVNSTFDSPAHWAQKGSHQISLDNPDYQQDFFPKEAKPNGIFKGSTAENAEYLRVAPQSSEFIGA

`O=C(CCCCCOc1ccc2ncnc(Nc3ccc(F)c(Cl)c3)c2c1)NO` displayed an IC50 against EGFR (human) not above 100 nM.
`CC(C)(C)c1cnc(CSc2cnc(NC(=O)Cc3ccc(OCCCC(=O)NO)cc3)s2)o1` gave an IC50 against CDK2 (human) not above 100 nM.
On EGFR (human), `COc1cc2ncnc(Nc3ccc(F)c(Cl)c3)c2cc1SCCCCCCC(=O)NO` displayed an IC50 not above 100 nM.
On EGFR (human), `COCCOc1cc2ncnc(Nc3ccc(F)c(Cl)c3)c2cc1NC(=O)CCCCC(=O)NO` yielded an IC50 not above 100 nM.
The molecule `CC(C)(C)c1cnc(CSc2cnc(NC(=O)CCCCCCC(=O)NO)s2)o1` had a 50% inhibitory concentration (IC50) against CDK2 (human) not above 100 nM.
Same read-out and setting: in the case of `CC(C)(C)c1cnc(CSc2cnc(NC(=O)CCCCCC(=O)NO)s2)o1` it was not above 100 nM.
As for `C#Cc1cccc(Nc2ncnc3ccc(OCC(=O)NO)cc23)c1`, the IC50 at EGFR (human) is not above 100 nM.
Still for that read-out and setting: the same measure for `COCCOc1cc2c(Nc3ccc(F)c(Cl)c3)ncnc2cc1OCCCCCCC(=O)NO`: not above 100 nM.
As to `CC(C)(C)c1cnc(CSc2cnc(NC(=O)CCCCC(=O)NO)s2)o1`, the IC50 against CDK2 (human) was not above 100 nM.
The molecule `O=C(CCCCCNCc1ccc(-c2ccc3ncnc(Nc4ccc(OCc5cccc(F)c5)c(Cl)c4)c3c2)o1)NO` registered an IC50 against EGFR (human) not above 100 nM.
Still for that read-out and setting: in the case of `C#Cc1cc(Nc2ncnc3cc(OC)c(OCCCCCCC(=O)NO)cc23)ccc1O` it was not above 100 nM.
The molecule `CC(C)(C)c1cnc(CSc2cnc(NC(=O)Cc3ccc(OCCCCC(=O)NO)cc3)s2)o1` showed an IC50 at CDK2 (human) not above 100 nM.
The molecule `C#Cc1cccc(Nc2ncnc3cc(OC)c(OCCCCCC(=O)NO)cc23)c1` returned a half-inhibitory concentration (IC50) at EGFR (human) not above 100 nM.
On the same count and under the same terms, in the case of `COc1cc2ncnc(Nc3ccc(F)c(Cl)c3)c2cc1NC(=O)CCCCCCC(=O)NO` it was not above 100 nM; in that of `C[C@@H](Nc1ncnc2[nH]c(-c3ccc(NC(=O)CCNCCCCCC(=O)NO)cc3)cc12)c1ccccc1`, not above 100 nM.
Same read-out and setting: the same measure for `O=C(CCCCCCOc1ccc2ncnc(Nc3ccc(F)c(Cl)c3)c2c1)NO`: not above 100 nM; for `C#Cc1cccc(Nc2ncnc3cc(OC)c(NC(=O)CCCC(=O)NO)cc23)c1`: not above 100 nM; for `C#Cc1cccc(Nc2ncnc3cc(OCCCCCCC(=O)NO)c(OC)cc23)c1`: not above 100 nM.
Take `COc1cc2ncnc(Nc3ccc(OCc4cccc(F)c4)c(Cl)c3)c2cc1OCCCCCCC(=O)NO`: on EGFR (human), the half-inhibitory concentration (IC50) was not above 100 nM.
`C#Cc1cccc(Nc2ncnc3cc(OC)c(OCCC(=O)NO)cc23)c1` displayed an IC50 against EGFR (human) not above 100 nM.
Still for that read-out and setting: in the case of `COCCOc1cc2ncnc(Nc3ccc(F)c(Cl)c3)c2cc1NC(=O)CCCCCCC(=O)NO` it was not above 100 nM; in that of `C#Cc1cccc(Nc2ncnc3cc(OC)c(OCCCC(=O)NO)cc23)c1`, not above 100 nM; in that of `C#Cc1cccc(Nc2ncnc3cc(OC)c(NC(=O)CCCCC(=O)NO)cc23)c1`, not above 100 nM.
On the same count and under the same terms, in the case of `COc1cc2ncnc(Nc3ccc(F)c(Cl)c3)c2cc1OCCCCCC(=O)NO` it was not above 100 nM.
On the same count and under the same terms, the same measure for `O=C(CCCCOc1ccc2ncnc(Nc3ccc(F)c(Cl)c3)c2c1)NO`: not above 100 nM.
In the case of `CC(C)(C)c1cnc(CSc2cnc(NC(=O)CCCC(=O)NO)s2)o1`, the concentration for half-maximal inhibition (IC50) against CDK2 (human) was not above 100 nM.
Consider `C#Cc1cccc(Nc2ncnc3cc(OCCCCCCC(=O)NO)c(OCCOC)cc23)c1`, for which the half-inhibitory concentration (IC50) on EGFR (human) is not above 100 nM.
Same read-out and setting: in the case of `COCCOc1cc2ncnc(Nc3ccc(F)c(Cl)c3)c2cc1NC(=O)CCCC(=O)NO` it was not above 100 nM; in that of `O=C(CCCCCCOc1ccc2ncnc(Nc3ccc(OCc4cccc(F)c4)c(Cl)c3)c2c1)NO`, not above 100 nM; in that of `COc1cc2ncnc(Nc3ccc(F)c(Cl)c3)c2cc1OCC(=O)NO`, not above 100 nM.
Molecule `COc1cc2ncnc(Nc3ccc(F)c(Cl)c3)c2cc1OCCOc1ccc(C(=O)NO)cc1` had an IC50 against EGFR (human) not above 100 nM.
The same measure, in the same setting: the same measure for `COc1cc2ncnc(Nc3ccc(F)c(Cl)c3)c2cc1OCCCCC(=O)NO`: not above 100 nM.
Molecule `C#Cc1cccc(Nc2ncnc3cc(OCCOC)c(OCCCCCCC(=O)NO)cc23)c1` yielded a concentration for half-maximal inhibition (IC50) on EGFR (human) not above 100 nM.
Same read-out and setting: the same measure for `O=C(COc1ccc2ncnc(Nc3ccc(F)c(Cl)c3)c2c1)NO`: not above 100 nM.
As for `COc1cc2ncnc(Nc3ccc(F)c(Cl)c3)c2cc1SCCCCC(=O)NO`, on EGFR (human), the concentration for half-maximal inhibition (IC50) was not above 100 nM.
As to `C#Cc1cccc(Nc2ncnc3ccc(OCCCCC(=O)NO)cc23)c1`, the IC50 on EGFR (human) was not above 100 nM.
Still for that read-out and setting: the same measure for `COc1cc2ncnc(Nc3ccc(F)c(Cl)c3)c2cc1NC(=O)CCCC(=O)NO`: not above 100 nM; for `COCCOc1cc2ncnc(Nc3ccc(F)c(Cl)c3)c2cc1OCCCCCCC(=O)NO`: not above 100 nM; for `O=C(CCOc1ccc2ncnc(Nc3ccc(F)c(Cl)c3)c2c1)NO`: not above 100 nM.
Still for that read-out and setting: in the case of `C#Cc1cccc(Nc2ncnc3cc(OC)c(OCC(=O)NO)cc23)c1` it was not above 100 nM; in that of `C#Cc1cccc(Nc2ncnc3cc(OC)c(NC(=O)CCCCCCC(=O)NO)cc23)c1`, not above 100 nM.
With `C[C@@H](Nc1ncnc2[nH]c(-c3ccc(NC(=O)CCNCCCCCCC(=O)NO)cc3)cc12)c1ccccc1`, the half-maximal inhibitory concentration (IC50) at EGFR (human) was not above 100 nM.
For `COc1cc2ncnc(Nc3ccc(F)c(Cl)c3)c2cc1CCCCCC(=O)NO`, the IC50 on EGFR (human) is not above 100 nM.
Still for that read-out and setting: the same measure for `COc1cc2ncnc(Nc3ccc(F)c(Cl)c3)c2cc1OCCC(=O)NO`: not above 100 nM; for `COc1cc2ncnc(Nc3ccc(F)c(Cl)c3)c2cc1OCCCC(=O)NO`: not above 100 nM.

For the origin of these results see the Kinase Knowledgebase extract (Sharma et al. 2016).
